Reference: patent publication US9795810B2, “Propylene glycol/glycerin-based deodorant” (COLGATE-PALMOLIVE COMPANY, priority 2007, dated 2017)

System: Corynebacterium minutissimum
Test: Zone of Inhibition test on inoculated agar plates
Format: cell-based
Details: for Zone of Inhibition (mm): from the edge of 2 cm disk, 0.2 g stick or approx. 0.6 g neat, 37° C., 48 hrs
Experimental: A commercially available regular Mennen Speed Stick (MSS) deodorant stick, an Ultimate Mennen Speed Stick deodorant stick (containing triclosan as a control) and the PG-free deodorant stick containing glycerin were tested with a Zone Of Inhibition test using 2 cm Webril® (Fiberweb, Gray Court, S.C.) cotton disks on inoculated plates. Also, as controls: water, neat (undiluted) PG and neat glycerin were tested.
Zone of Inhibition Test method: To the disks was added 0.2 g of the stick products or approximately 0.6 g (enough to just saturate the disk) of the neat controls. The disks were then inverted and placed face down on an inoculated agar plate. The agar plates were streaked beforehand (30 minutes) such that a bacterial lawn of Corynebacterium minutissimum at a concentration of 10^6/ml was created covering the entire plate surface. The plates were then incubated at 37° C. for 48 hrs.
Zones of inhibition were measured in millimeters (mm) from the edge of the disk. A greater zone equals increased bacterial growth inhibition.

## CC(O)CO (stereo not drawn) [PG neat, propylene glycol]
  Zone of Inhibition (mm): 2.5 mm

## OCC(O)CO [Glycerin neat, glycerin]
  Zone of inhibition result in words: small zone
  Zone of Inhibition (mm): 1 mm
